In one data set the target is BRDT-BD2 (Homo sapiens (Human), UniProt Q58F21). The data set is described as follows: AlphaScreen bromodomain proximity assay (competition with biotinylated (+)-JQ1), BRDT-BD2. Format: binding.
For a further data set, the target named is BRDT-BD1 (Homo sapiens (Human), UniProt Q58F21). The data set is described as follows: AlphaScreen bromodomain proximity assay (competition with biotinylated (+)-JQ1), BRDT-BD1. Type of data set: binding. As to conditions: NE: no effect at 10 μM. (In general: In Alpha technology, singlet oxygen from a donor bead excites a nearby acceptor bead.)
A short description of data set [1]: Metabolic stability assay in mouse liver microsomes. Type of data set: in vitro ADME. As to conditions: in words. The procedure: Compounds 3-10, 15, 17, and 20-22 (2.0 μM) were incubated in the mouse or human liver microsomes (0.5 mg protein/mL) at 37° C. […] The reaction mixtures were centrifuged at rcf 15,000 for 15 min. […] The column temperature was maintained at 40° C. […] Q Exactive MS was operated in positive or negative mode with electrospray ionization.
(In general: Liver microsomes are a subcellular fraction often used to study metabolism.)

The term IC50 denotes the concentration at which inhibition is half-maximal. Turning to `Cc1cc(N)ccc1-c1nn(C)c2ccc(-c3cccnc3)cc12` [compound 78, 3-Methyl-4-(1-methyl-5-(pyridin-3-yl)-1H-indazol-3-yl)aniline], the IC50 was over 10000 nM at BRDT-BD2 and 2440 nM on BRDT-BD1. Turning to `CNC(=O)c1ccc(C(=O)Nc2cc(NC(=O)c3ccc4c(c3)c(-c3cnc(N)cc3C)nn4C)ccc2C)cc1` [compound 15], at BRDT-BD2, the concentration for half-maximal inhibition (IC50) stood at 22 nM. The mouse microsomal stability entry in data set [1] is listed as “high mouse microsomal stability”. For `COc1ccc(N(C)C(=O)c2ccc3c(c2)c(-c2ccc(N)cc2C)nn3C)cc1` [compound 26, 3-(4-Amino-2-methylphenyl)-N-(4-methoxyphenyl)-N,1-dimethyl-1H-indazole-5-carboxamide], the IC50 was over 1000 nM on BRDT-BD2 and over 10000 nM at BRDT-BD1. Taken in the same sequence, the figures for `CNC(=O)c1ccc2c(c1)c(-c1ccc(N)cc1C)nn2C` [compound 55, 3-(4-Amino-2-methylphenyl)-N,1-dimethyl-1H-indazole-5-carboxamide] were 988 nM and over 10000 nM. With `CNC(=O)c1cc(NC(=O)c2ccc3c(c2)c(-c2ccc(N)cc2C)nn3C)ccc1C` [compound 22, 3-(4-Amino-2-methylphenyl)-1-methyl-N-(4-methyl-3-(methylcarbamoyl)phenyl)-1H-indazole-5-carboxamide], the 50% inhibitory concentration (IC50) was 18 nM on BRDT-BD2 and over 10000 nM at BRDT-BD1. Besides, the mouse microsomal stability result in data set [1] was “high mouse microsomal stability”. For the compound `Cc1cc(N)ccc1-c1nn(C)c2ccc(-c3cnc(C(F)(F)F)nc3)cc12` [compound 77, 3-Methyl-4-(1-methyl-5-(2-(trifluoromethyl)pyrimidin-5-yl)-1H-indazol-3-yl)aniline], the IC50 on BRDT-BD2 is 3630 nM; on BRDT-BD1, over 10000 nM. Taken in the same sequence, the figures for `CNC(=O)c1ccc(C(=O)Nc2cc(NC(=O)c3ccc4c(c3)c(-c3ccc(OC)cc3)nn4C)ccc2C)cc1` [compound 11] were 521 nM and over 10000 nM.

With `CNC(=O)c1ccc2c(c1)c(-c1cc3ccccc3n1C)nn2C` [compound 67, N,1-Dimethyl-3-(1-methyl-1H-indol-2-yl)-1H-indazole-5-carboxamide], the concentration for half-maximal inhibition (IC50) on BRDT-BD2 was 261 nM; at BRDT-BD1, over 10000 nM. Regarding `COc1ccc(NC(=O)c2ccc3c(c2)c(-c2ccc(N)cc2C)nn3C)cc1NC(=O)c1ccccc1` [compound 23, 3-(4-Amino-2-methylphenyl)-N-(3-benzamido-4-methoxyphenyl)-1-methyl-1H-indazole-5-carboxamide], the results for the IC50 on BRDT-BD2 and at BRDT-BD1 were 35 nM and over 10000 nM, respectively. Turning to `CC(=O)Nc1cc(NC(=O)c2ccc3c(c2)c(-c2ccc(N)nc2)nn3C)ccc1C` [compound 17, N-(3-Acetamido-4-methylphenyl)-3-(6-aminopyridin-3-yl)-1-methyl-1H-indazole-5-carboxamide], the concentration for half-maximal inhibition (IC50) is 47 nM on BRDT-BD2 and over 10000 nM on BRDT-BD1. Also, in data set [1], the mouse microsomal stability result is on record as “high mouse microsomal stability”. With `COc1ccc(-c2ccc3c(c2)c(-c2ccc(N)cc2C)nn3C)cn1` [compound 80, 4-(5-(6-Methoxypyridin-3-yl)-1-methyl-1H-indazol-3-yl)-3-methylaniline], the IC50 at BRDT-BD2 was over 10000 nM; on BRDT-BD1, 1020 nM. Taken in the same sequence, the figures for `CC(=O)Nc1cc(NC(=O)c2ccc3c(c2)c(-c2ccc(N)nc2)nn3C(C)C)ccc1C` [compound 19, N-(3-Acetamido-4-methylphenyl)-3-(6-aminopyridin-3-yl)-1-isopropyl-1H-indazole-5-carboxamide] were 253 nM and over 10000 nM. Taken in the same sequence, the figures for `Cc1ccc(-c2ccc3c(c2)c(-c2ccc(N)cc2C)nn3C)cn1` [compound 79, 3-Methyl-4-(1-methyl-5-(6-methylpyridin-3-yl)-1H-indazol-3-yl)aniline] were over 10000 nM and 3210 nM. The like results for `CNC(=O)c1ccc(C(=O)Nc2cc(NC(=O)c3ccc4c(c3)c(-c3cnc(N)nc3)nn4C)ccc2C)cc1` [compound 13, N^1-(5-(3-(2-Aminopyrimidin-5-yl)-1-methyl-1H-indazole-5-carboxamido)-2-methylphenyl)-N^4-methylterephthalamide] were, in that order, 139 nM and over 10000 nM. Take `COc1ccc(NC(=O)c2ccc3c(c2)c(-c2ccc(N)cc2C)nn3C)cc1` [compound 24, 3-(4-Amino-2-methylphenyl)-N-(4-methoxyphenyl)-1-methyl-1H-indazole-5-carboxamide]: the 50% inhibitory concentration (IC50) was 54 nM on BRDT-BD2 and over 10000 nM at BRDT-BD1. Take `Cc1cc(N)ccc1-c1nn(C)c2ccc(C(=O)Nc3ccc(OCC4CC4)cc3)cc12` [compound 65, 3-(4-Amino-2-methylphenyl)-N-(4-(cyclopropylmethoxy)phenyl)-1-methyl-1H-indazole-5-carboxamide]: the IC50 was 98 nM on BRDT-BD2 and over 10000 nM on BRDT-BD1. Taken in the same sequence, the figures for `Cc1cc(N)ccc1-c1nn(C)c2ccc(C(=O)Nc3ccccc3)cc12` [compound 25, 3-(4-Amino-2-methylphenyl)-1-methyl-N-phenyl-1H-indazole-5-carboxamide] were 90 nM and over 10000 nM. In the case of `COc1ccc(NC(=O)c2ccc3c(c2)c(-c2cc4ccccc4n2C)nn3C)cc1C` [compound 29, N-(4-Methoxy-3-methylphenyl)-1-methyl-3-(1-methyl-1H-indol-2-yl)-1H-indazole-5-carboxamide], the IC50 at BRDT-BD2 came out at 111 nM.

Regarding `CCn1nc(-c2ccc(N)nc2)c2cc(C(=O)Nc3ccc(C)c(NC(C)=O)c3)ccc21` [compound 18, N-(3-Acetamido-4-methylphenyl)-3-(6-aminopyridin-3-yl)-1-ethyl-1H-indazole-5-carboxamide], the half-maximal inhibitory concentration (IC50) on BRDT-BD2 was 79 nM; on BRDT-BD1, over 10000 nM. At BRDT-BD2, `COc1ccc(NC(=O)c2ccc3c(c2)c(-c2cc4ccccc4n2C)nn3C)c(Cl)c1` [compound 36, N-(2-Chloro-4-methoxyphenyl)-1-methyl-3-(1-methyl-1H-indol-2-yl)-1H-indazole-5-carboxamide] had a concentration for half-maximal inhibition (IC50) of over 1250 nM. Same read-out and setting: the figure for `COc1ccc(NC(=O)c2ccc3c(c2)c(-c2cc4ccccc4n2C)nn3C)cc1C#N` [compound 71, N-(3-Cyano-4-methoxyphenyl)-1-methyl-3-(1-methyl-1H-indol-2-yl)-1H-indazole-5-carboxamide] is 168 nM. In the case of `COc1ccc(NC(=O)c2ccc3nn(C)c(-c4ccc(N)cc4C)c3c2)cc1` [compound 27, 3-(4-Amino-2-methylphenyl)-N-(4-methoxyphenyl)-2-methyl-2H-indazole-5-carboxamide], the IC50 on BRDT-BD2 was 17200 nM; on BRDT-BD1, over 10000 nM. For the compound `COc1ccc(NC(=O)c2ccc3c(c2)c(-c2cc4ccccc4n2C)nn3C)cc1` [compound 28, N-(4-Methoxyphenyl)-1-methyl-3-(1-methyl-1H-indol-2-yl)-1H-indazole-5-carboxamide], on BRDT-BD2, the IC50 amounted to 121 nM. At BRDT-BD2, `COc1ccc(NC(=O)c2ccc3c(c2)c(-c2cc4ccccc4n2C)nn3C)cc1-c1ccccc1` [compound 72, N-(6-Methoxy-[1,1′-biphenyl]-3-yl)-1-methyl-3-(1-methyl-1H-indol-2-yl)-1H-indazole-5-carboxamide] registered an IC50 of 2390 nM.

Regarding `CNC(=O)c1ccc(C(=O)Nc2cc(NC(=O)c3ccc4c(c3)c(-c3ccc(N)nc3C)nn4C)ccc2C)cc1` [compound 14, N^1-(5-(3-(6-Amino-2-methylpyridin-3-yl)-1-methyl-1H-indazole-5-carboxamido)-2-methylphenyl)-N^4-methylterephthalamide], the half-inhibitory concentration (IC50) on BRDT-BD2 is 94 nM.

Source of the values: patent US20240158355A1, “BET SUBFAMILY INHIBITORS AND METHODS USING SAME” (Baylor College of Medicine, priority 2021, published 2024).
